Experimental data published in paper PMC8621857, “Structural Insights into the Azole Resistance of the Candida albicans Darlington Strain Using Saccharomyces cerevisiae Lanosterol 14α-Demethylase as a Surrogate” (Journal of Fungi, 2021).
Read-outs that look alike come from different tables or passages of the source.

Assays:
[1] = tested on: Phakopspora pachyrhizi SDM Y131F I475T isolates; set-up: method as in PMID 23589453; settings: isolates from soybean plants in Brazil; cited from earlier work
[2] = tested on: S. cerevisiae strain AD3Δ ScErg11 Y140H I471T expressing ScLDM6×His Y140H I471T; experiment: Broth microdilution drug susceptibility assay (MIC80), strain AD3Δ ScErg11 Y140H I471T; type: cell-based, Saccharomyces cerevisiae; settings: for MIC80/Relative Amount of ScLDM6×His / fold-resistance based on the relative amount of recombinant enzyme compared with strain AD3Δ: strain Y140H+I471T, relative expression 0.41; for resistance conferred, relative expression taken into account: ScLDM6×His Y140H I471T (0.41 of wild-type) vs AD3Δ
Procedure: (§1) The native ScERG11 gene in yeast cells containing mutant ScERG11-6×His constructs in the PDR5 locus was disrupted by homologous recombination with a cassette encoding the His1 selection marker and sequences homologous with the regions bordering the endogenous ScERG11 ORF to create strains AD3Δ ScErg11 Y140H, AD3Δ ScErg11 I471T and AD3Δ ScErg11Y140H I471T [43]. Transformants were selected on SD-His agar plates incubated at 30 °C for 48–72 h. Genomic DNA was extracted, and DNA sequencing as above was used to confirm deletion of the native ERG11. Strain AD3Δ ScErg11 (denoted as AD3Δ), which overexpresses wild-type ScLDM6×His from the PDR5 locus and has the native ScERG11 gene disrupted, was used as a control strain [43].
(§2) Azole susceptibility was measured as the mean drug concentration required to inhibit 80% of yeast growth (MIC80) compared to a non-drug control, using a standard broth microdilution assay. Serial dilutions of short- (FLC and VCZ), medium- (VT-1161), and long-tailed (ITC and PCZ) azole drugs, and the control drugs micafungin (MCF) and amphotericin B (AMB), were prepared in a 96-well microtiter plate in complete synthetic media lacking uracil, buffered to pH 6.8 [34]. Control and test cells were seeded at an optical density of 600 nm (OD600) of 0.005 (~1.5 × 10^4 colony forming units). After incubation for 48 h at 30 °C with constant agitation (200 rpm), the OD600 nm of each well was measured using a Synergy 2 multi-mode plate reader (BioTek Instruments, Winooski, VT, USA). The experiment was repeated three times (a total of nine measurements for the response of each strain to each drug). GraphPad Prism 5.0 software was used for statistical analysis, using a one-way analysis of variance with a Bonferroni post-hoc test. The statistical significance of comparisons was accepted when p < 0.05.

[3] = tested on: C. albicans Darlington strain; experiment: Agarose disk diffusion assay, Darlington strain; type: cell-based, Candida albicans; settings: for effect of Mdr1 inhibitor MCC1189 on azole susceptibility: MCC1189 at 6 µM in the assay medium; for effect of Cdr1p inhibitor RC21v3 on azole susceptibility: RC21v3 at 6 µM in the assay medium; for agarose diffusion susceptibility: no efflux pump inhibitor
Procedure: (§3) Agarose diffusion assays were carried out as described previously using the Darlington strain of C. albicans (Pfizer Ltd., Sandwich, UK) and the control C. albicans database strain SC5314, which is not resistant to azoles. The Cdr1p-specific inhibitor RC21v3 and the CaMdr1p-specific inhibitor MCC1189 (MicroCombiChem, Wiesbaden, Germany), included in the assay medium at 6 µM, were used to investigate the contribution of efflux pumps to azole resistance in the Darlington strain [49, 50, 51].

[4] = biological target: wild-type and Y140F/H mutants of ScLDM6×His; set-up: method as in earlier work; settings: no significant differences, ref 5 (supplement; Sagatova et al. 2016); cited from earlier work
[5] = tested on: C. albicans strain SC5314; experiment: Agarose disk diffusion assay, control strain SC5314; type: cell-based, Candida albicans; settings: for agarose diffusion susceptibility: SC5314, no efflux pump inhibitor
Procedure: as §3

[6] = tested on: S. cerevisiae strain AD3Δ ScErg11 (AD3Δ) overexpressing wild-type ScLDM6×His; experiment: Broth microdilution drug susceptibility assay (MIC80), strain AD3Δ ScErg11; type: cell-based, Saccharomyces cerevisiae; settings: for MIC80: Saccharomyces cerevisiae, 48 h, pH 6.8
Procedure: as §1, §2

[7] = tested on: S. cerevisiae strain AD3Δ ScErg11 Y140H expressing ScLDM6×His Y140H; experiment: Broth microdilution drug susceptibility assay (MIC80), strain AD3Δ ScErg11 Y140H; type: cell-based, Saccharomyces cerevisiae; settings: for MIC80: Saccharomyces cerevisiae, 48 h, 30 °C, pH 6.8, mean (± SEM), n = 3; for MIC80 / MIC80/Relative Amount of ScLDM6×His / fold-resistance based on the relative amount of recombinant enzyme compared with strain AD3Δ: strain Y140H; for resistance conferred, relative amount of recombinant ScLDM6×His taken into account: ScLDM6×His Y140H vs AD3Δ; for MIC80 higher than strain AD3Δ ScErg11: strain AD3Δ ScErg11 Y140H vs AD3Δ, p < 0.001; for MIC80/Relative Amount of ScLDM6×His / fold-resistance based on the relative amount of recombinant enzyme compared with strain AD3Δ: relative expression 0.74
Procedure: as §1, §2

[8] = tested on: S. cerevisiae strain AD2Δ (native wild-type ScLDM); experiment: Broth microdilution drug susceptibility assay (MIC80), host strain AD2Δ; type: cell-based; settings: Saccharomyces cerevisiae, 48 h, pH 6.8
Procedure: Yeast strains used in this study (Supplementary Table S1) were prepared using the AD2Δ strain of S. cerevisiae as a host, using an established protocol. AD2Δ is hypersensitive to xenobiotics due to the deletion of seven major ABC transporters, including those responsible for the efflux of azole drugs. It is also deleted of the PDR3 transcriptional regulator, but contains the gain-of-function Pdr1-3 transcriptional regulator mutation that leads to constitutive overexpression from the PDR5 locus.
as §2

[9] = tested on: S. cerevisiae strain AD3Δ ScErg11 I471T expressing ScLDM6×His I471T; experiment: Broth microdilution drug susceptibility assay (MIC80), strain AD3Δ ScErg11 I471T; type: cell-based, Saccharomyces cerevisiae; settings: for MIC80: Saccharomyces cerevisiae, 48 h, 30 °C, pH 6.8, mean (± SEM), n = 3; for MIC80 / MIC80/Relative Amount of ScLDM6×His / fold-resistance based on the relative amount of recombinant enzyme compared with strain AD3Δ: strain I471T; for increased susceptibility compared with AD3Δ: strain AD3Δ ScErg11 I471T, not corrected for expression; for MIC80/Relative Amount of ScLDM6×His / fold-resistance based on the relative amount of recombinant enzyme compared with strain AD3Δ: relative expression 0.51
Procedure: as §1, §2

[10] = Saccharomyces cerevisiae, strain Y140H + I471T, 48 h, 30 °C, pH 6.8, mean (± SEM), n = 3
[11] = SC5314, MCC1189 at 6 µM in the assay medium
[12] = SC5314, RC21v3 at 6 µM in the assay medium
[13] = strain AD3Δ, 30 °C, mean (± SEM), n = 3, read-out: MIC80
[14] = strain AD3Δ, relative expression 1
[15] = strain AD2Δ, 30 °C, mean (± SEM), n = 3, read-out: MIC80

SMILES: Fc1ccc([C@]2(Cn3cncn3)O[C@H]2c2ccccc2Cl)cc1 (racemic) [epoxiconazole]
- resistance conferred by the double mutation Y131F I475T [1]: ~ 100 fold

SMILES: OC(Cn1cncn1)(Cn1cncn1)c1ccc(F)cc1F [FLC, fluconazole]
- MIC80 [2, 10]: 11.5 µM
- MIC80 higher than AD3Δ ScErg11 cells ([2]; strain AD3Δ ScErg11 Y140H I471T, not corrected for expression, p < 0.001): approximately 3 fold
- MIC80 higher than cells overexpressing ScLDM6×His Y140H ([2]; strain AD3Δ ScErg11 Y140H I471T, p < 0.001): 1.5 fold
- MIC80/Relative Amount of ScLDM6×His [2]: 28.0 µM
- fold-resistance based on the relative amount of recombinant enzyme compared with strain AD3Δ [2]: 7.7 ×
- effect of Mdr1 inhibitor MCC1189 on azole susceptibility [3]: did not alter the susceptibility
- effect of Cdr1p inhibitor RC21v3 on azole susceptibility [3]: did not alter the susceptibility
- agarose diffusion susceptibility [3]: resistant
- Kd [4]: ~500 nM
- effect of Cdr1p inhibitor RC21v3 on azole susceptibility [5]: did not alter the susceptibility
- effect of Mdr1 inhibitor MCC1189 on azole susceptibility [5]: did not alter the susceptibility
- agarose diffusion susceptibility [5]: susceptible
- MIC80/Relative Amount of ScLDM6×His [6]: 3.64 µM
- MIC80 [6]: 3.64 µM
- MIC80 [7]: 7.4 µM
- resistance conferred, relative amount of recombinant ScLDM6×His taken into account [7]: 2.8 fold
- MIC80 higher than strain AD3Δ ScErg11 ([7]; not corrected for expression): ~ 2 fold
- MIC80/Relative Amount of ScLDM6×His [7]: 10 µM
- fold-resistance based on the relative amount of recombinant enzyme compared with strain AD3Δ [7]: 2.8 ×
- MIC80 [8]: 1.33 µM
- MIC80 [9]: 1.88 µM
- increased susceptibility compared with AD3Δ [9]: 1.9 fold
- MIC80/Relative Amount of ScLDM6×His [9]: 3.69 µM
- fold-resistance based on the relative amount of recombinant enzyme compared with strain AD3Δ [9]: 1.0 ×

SMILES: CC[C@@H]([C@H](C)O)n1ncn(-c2ccc(N3CCN(c4ccc(OC[C@@H]5CO[C@@](Cn6cncn6)(c6ccc(F)cc6F)C5)cc4)CC3)cc2)c1=O [PCZ, Posaconazole]
- MIC [2, 10]: 0.265 µM
- resistance conferred, relative expression taken into account [2]: 1.5 fold
- MIC80/Relative Amount of ScLDM6×His [2]: 0.646 µM
- fold-resistance based on the relative amount of recombinant enzyme compared with strain AD3Δ [2]: 1.5 ×
- effect of Mdr1 inhibitor MCC1189 on azole susceptibility [3]: no effect on susceptibility
- effect of Cdr1p inhibitor RC21v3 on azole susceptibility [3]: increased susceptibility
- agarose diffusion susceptibility [3]: resistant
- Kd [4]: ~500 nM
- effect of Mdr1 inhibitor MCC1189 on azole susceptibility [5, 11]: no effect on susceptibility
- effect of Cdr1p inhibitor RC21v3 on azole susceptibility [5, 12]: increased susceptibility
- MIC80 [6, 13]: 0.423 µM
- MIC80/Relative Amount of ScLDM6×His [6, 14]: 0.423 µM
- MIC80 [7]: 0.33 µM
- susceptibility compared with AD3Δ cells ([7]; cells overexpressing ScLDM6×His Y140H, not corrected for expression): slightly increased susceptibility
- MIC80/Relative Amount of ScLDM6×His [7]: 0.445 µM
- fold-resistance based on the relative amount of recombinant enzyme compared with strain AD3Δ [7]: 1.1 ×
- MIC80 [8, 15]: 0.16 µM
- MIC80 [9]: 0.27 µM
- increased susceptibility compared with AD3Δ [9]: 1.6 fold
- MIC80/Relative Amount of ScLDM6×His [9]: 0.527 µM
- fold-resistance based on the relative amount of recombinant enzyme compared with strain AD3Δ [9]: 1.3 ×

SMILES: O[C@@](Cn1cnnn1)(c1ccc(F)cc1F)C(F)(F)c1ccc(-c2ccc(OCC(F)(F)F)cc2)cn1 [VT-1161]
- MIC [2, 10]: 0.0676 µM
- resistance conferred, relative expression taken into account [2]: 2.2 fold
- MIC80/Relative Amount of ScLDM6×His [2]: 0.165 µM
- fold-resistance based on the relative amount of recombinant enzyme compared with strain AD3Δ [2]: 2.2 ×
- effect of Mdr1 inhibitor MCC1189 on azole susceptibility [3]: did not alter the susceptibility
- effect of Cdr1p inhibitor RC21v3 on azole susceptibility [3]: did not alter the susceptibility
- agarose diffusion susceptibility [3]: resistant
- effect of Mdr1 inhibitor MCC1189 on azole susceptibility [5, 11]: did not alter the susceptibility
- effect of Cdr1p inhibitor RC21v3 on azole susceptibility [5, 12]: did not alter the susceptibility
- agarose diffusion susceptibility [5]: susceptible
- MIC80 [6, 13]: 0.0754 µM
- MIC80/Relative Amount of ScLDM6×His [6, 14]: 0.0754 µM
- MIC80 [7]: 0.116 µM
- resistance conferred, relative amount of recombinant ScLDM6×His taken into account [7]: 2.1 fold
- resistance of cells containing the Y140H mutation in ScLDM6×His ([7]; discussion, significant but modest): 2 fold
- MIC80 higher than strain AD3Δ ScErg11 ([7]; not corrected for expression): 1.5 fold
- MIC80/Relative Amount of ScLDM6×His [7]: 0.157 µM
- fold-resistance based on the relative amount of recombinant enzyme compared with strain AD3Δ [7]: 2.1 ×
- MIC80 [8, 15]: 0.0288 µM
- MIC80 [9]: 0.0346 µM
- increased susceptibility compared with AD3Δ [9]: 2.2 fold
- MIC80/Relative Amount of ScLDM6×His [9]: 0.0679 µM
- fold-resistance based on the relative amount of recombinant enzyme compared with strain AD3Δ [9]: 0.90 ×

SMILES: CC(C1CC1)C(O)(Cn1cncn1)c1ccc(Cl)cc1 (stereo not drawn) [cyproconazole]
- resistance conferred by the double mutation Y131F I475T [1]: ~ 100 fold

SMILES: CC1(C)CCC(Cc2ccc(Cl)cc2)C1(O)Cn1cncn1 (stereo not drawn) [metconazole]
- resistance conferred by the double mutation Y131F I475T [1]: ~ 100 fold

SMILES: CC(C)(C)C(O)(CCc1ccc(Cl)cc1)Cn1cncn1 (stereo not drawn) [tebuconazole]
- resistance conferred by the double mutation Y131F I475T [1]: ~ 100 fold
